Where “and” joins values, the source holds several entries; their conditions need not be identical. Identical values can stand only once. Entries after “also recorded” stand apart in the source; their conditions may differ. Like-named read-outs stand apart in the source and are kept apart here.
Experiments:
[1] = test system: M2 of influenza A(H1N1) viruses
[2] = test system: NA enzyme activity of influenza A(H1N1) viruses; format: biochemical, influenza A(H1N1) virus
influenza virus = conditions: human, in vivo; cited from earlier work

NC12CC3CC(CC(C3)C1)C2 [amantadine]
susceptibility of oseltamivir resistant A(H1N1) viruses to amantadine / M2I [1]: still susceptible

CC(=O)N[C@H]1[C@H]([C@H](O)[C@H](O)CO)OC(C(=O)O)=C[C@@H]1N=C(N)N [zanamivir]
susceptibility of oseltamivir resistant A(H1N1) viruses to zanamivir [2]: None of influenza A(H1N1) oseltamivir resistant viruses tested was resistant; also recorded: sensitive; also recorded: still susceptible | IC50 ([2]; read-out: baseline zanamivir IC50-value (mean±SD)): 1.05 nM and 0.98 nM | IC50 ([2]; read-out: mean IC50 ± SD): 0.87 ± 0.22 nM

CCOC(=O)C1=C[C@@H](OC(CC)CC)[C@H](NC(C)=O)[C@@H](N)C1 [oseltamivir]
proportion of viruses resistant against oseltamivir, phenotypic assessment [2]: 29% | oseltamivir-resistance emerged in treated children (influenza virus): 18% and 16%

Reference: paper PMC3249654 (The Open Virology Journal, 2011)
